Here are results for 1 substance from US20120177701A1, “COMPOSITIONS COMPRISING IMMUNOSTIMULATORY NUCLEIC ACIDS AND RELATED METHODS” (priority 2010, published 2012).

The target of assay [1] is T1, human TLR9 (Homo sapiens, UniProt Q9NR96).
T1 construct: expressed in transfected cells; host or cells: HEK-Blue hTLR9 (HEK293-derived reporter line)
T1 sequence (Q9NR96 26-1032): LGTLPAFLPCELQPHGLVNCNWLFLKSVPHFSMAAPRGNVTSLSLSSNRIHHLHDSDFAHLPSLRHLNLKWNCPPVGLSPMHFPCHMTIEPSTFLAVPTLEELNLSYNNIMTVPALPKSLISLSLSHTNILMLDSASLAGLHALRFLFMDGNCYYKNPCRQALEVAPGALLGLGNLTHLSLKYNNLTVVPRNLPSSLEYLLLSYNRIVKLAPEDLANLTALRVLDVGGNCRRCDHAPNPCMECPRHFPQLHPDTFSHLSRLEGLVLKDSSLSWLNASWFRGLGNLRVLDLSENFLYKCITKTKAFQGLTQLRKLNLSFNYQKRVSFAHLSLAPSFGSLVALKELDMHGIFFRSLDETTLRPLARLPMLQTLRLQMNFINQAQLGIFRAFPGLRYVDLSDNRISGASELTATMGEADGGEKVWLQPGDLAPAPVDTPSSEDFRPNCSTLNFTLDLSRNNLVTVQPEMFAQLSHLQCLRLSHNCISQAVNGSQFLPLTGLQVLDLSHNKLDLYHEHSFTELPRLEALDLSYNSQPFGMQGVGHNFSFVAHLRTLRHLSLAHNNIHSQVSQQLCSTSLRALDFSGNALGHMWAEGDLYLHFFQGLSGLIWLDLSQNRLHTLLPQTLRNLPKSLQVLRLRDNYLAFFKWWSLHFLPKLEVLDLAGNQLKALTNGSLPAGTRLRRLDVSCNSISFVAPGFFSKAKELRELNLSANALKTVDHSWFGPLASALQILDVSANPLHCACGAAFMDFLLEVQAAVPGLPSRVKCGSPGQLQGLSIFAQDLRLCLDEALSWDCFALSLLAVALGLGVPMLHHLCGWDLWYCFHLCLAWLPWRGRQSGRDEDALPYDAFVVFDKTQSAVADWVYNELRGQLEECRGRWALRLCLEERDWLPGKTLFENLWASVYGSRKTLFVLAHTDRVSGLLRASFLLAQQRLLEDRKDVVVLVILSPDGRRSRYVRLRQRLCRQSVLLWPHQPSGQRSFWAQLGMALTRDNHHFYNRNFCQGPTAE
The assay is classed as cell-based.

The test system of assay [2] is J774 murine macrophages. As to the kind of experiment: TNF-α induction in mouse macrophage cell line J774. The class given is cell-based. How it is done: Induction of TNF-α by macrophages is a hallmark of human TLR8 activation (Forsbach et al., 2008, J. Immunol., 180:3729-38; Ghosh et al., 2007, Int. Immunopharmacol., 7:1111-21; Gorden et al., 2005, J. Immunol., 174:1259-68). […] In the following experiment mouse macrophage cell line, J774, has been transfected by test ribonucleotides as described above for HEK-Blue™ hTLR8 cells (with the exception that 2-10×10^4 cells/well were used) and TNF-α was measured in culture supernatants at 16-20 hours after transfection.

Assay [3] relates to HEK-Blue™ Null. The class given is cell-based, human.
For assay [4], the target named is T2, human TLR3 (Homo sapiens, UniProt O15455).
T2 construct: expressed in transfected cells; host or cells: HEK-Blue hTLR3 (HEK293-derived reporter line)
T2 sequence (O15455 24-904): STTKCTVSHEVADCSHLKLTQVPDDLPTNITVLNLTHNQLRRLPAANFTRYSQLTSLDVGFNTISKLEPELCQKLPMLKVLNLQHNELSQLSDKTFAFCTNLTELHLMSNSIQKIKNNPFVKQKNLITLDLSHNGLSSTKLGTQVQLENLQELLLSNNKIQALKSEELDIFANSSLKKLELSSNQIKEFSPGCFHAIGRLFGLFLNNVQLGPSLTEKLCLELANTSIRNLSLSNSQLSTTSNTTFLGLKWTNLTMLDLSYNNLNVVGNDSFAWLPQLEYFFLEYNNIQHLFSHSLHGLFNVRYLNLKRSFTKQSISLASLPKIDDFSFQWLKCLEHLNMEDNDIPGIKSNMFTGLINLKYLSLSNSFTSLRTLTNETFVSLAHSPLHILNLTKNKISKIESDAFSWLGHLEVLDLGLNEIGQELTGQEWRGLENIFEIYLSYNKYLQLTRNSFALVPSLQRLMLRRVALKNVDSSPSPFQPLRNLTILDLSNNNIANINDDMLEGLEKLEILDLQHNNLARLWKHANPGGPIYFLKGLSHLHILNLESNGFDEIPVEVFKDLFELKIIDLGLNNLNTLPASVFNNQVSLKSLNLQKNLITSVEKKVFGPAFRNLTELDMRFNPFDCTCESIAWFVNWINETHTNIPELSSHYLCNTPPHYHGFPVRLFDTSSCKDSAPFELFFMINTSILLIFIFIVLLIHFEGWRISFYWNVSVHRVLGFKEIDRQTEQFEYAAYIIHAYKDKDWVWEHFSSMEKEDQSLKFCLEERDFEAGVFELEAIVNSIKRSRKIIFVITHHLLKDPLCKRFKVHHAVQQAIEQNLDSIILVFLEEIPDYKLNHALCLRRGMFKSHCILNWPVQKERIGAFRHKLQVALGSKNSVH
The class given is cell-based.

For assay [5], the target named is T3, human TLR8 (Homo sapiens, UniProt Q9NR97).
T3 construct: host or cells: HEK293 (HEK-Blue hTLR8) with NF-kB-inducible SEAP reporter
T3 sequence (Q9NR97 27-1041): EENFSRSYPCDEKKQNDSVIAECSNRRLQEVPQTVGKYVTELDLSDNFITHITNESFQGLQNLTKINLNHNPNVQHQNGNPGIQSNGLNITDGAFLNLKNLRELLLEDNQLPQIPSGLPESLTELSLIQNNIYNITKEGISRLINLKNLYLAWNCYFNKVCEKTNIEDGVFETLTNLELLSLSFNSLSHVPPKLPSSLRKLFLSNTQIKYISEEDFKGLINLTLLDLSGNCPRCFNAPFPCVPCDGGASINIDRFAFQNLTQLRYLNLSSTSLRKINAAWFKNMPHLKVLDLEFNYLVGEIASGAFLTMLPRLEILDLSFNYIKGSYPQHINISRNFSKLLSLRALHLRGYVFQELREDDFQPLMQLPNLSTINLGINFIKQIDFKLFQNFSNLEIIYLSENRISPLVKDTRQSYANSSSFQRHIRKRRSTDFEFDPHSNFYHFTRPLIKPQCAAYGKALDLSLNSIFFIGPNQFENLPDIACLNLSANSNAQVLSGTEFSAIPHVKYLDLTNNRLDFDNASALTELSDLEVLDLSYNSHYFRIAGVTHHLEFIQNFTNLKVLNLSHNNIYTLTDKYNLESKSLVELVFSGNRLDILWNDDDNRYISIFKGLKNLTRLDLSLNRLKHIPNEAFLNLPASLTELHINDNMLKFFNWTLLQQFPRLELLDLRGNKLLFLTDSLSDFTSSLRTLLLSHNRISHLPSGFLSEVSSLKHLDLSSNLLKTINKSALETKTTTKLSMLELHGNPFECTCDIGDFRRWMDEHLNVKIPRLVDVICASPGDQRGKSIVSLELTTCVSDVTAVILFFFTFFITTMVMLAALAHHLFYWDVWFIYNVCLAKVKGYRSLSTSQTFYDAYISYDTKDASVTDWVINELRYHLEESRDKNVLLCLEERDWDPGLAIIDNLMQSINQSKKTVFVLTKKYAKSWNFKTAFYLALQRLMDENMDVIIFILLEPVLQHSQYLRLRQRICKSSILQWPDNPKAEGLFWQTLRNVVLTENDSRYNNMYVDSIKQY
Briefly: HEK-Blue hTLR8 NF-kB-inducible SEAP reporter assay (TLR8 activation). The assay is classed as cell-based.

Assay [6] relates to primary human lymphocytes. The assay is classed as cell-based.

For the substance “5′-AAGAAGAAAUAGAUUUAUUUUUAAAUUUUUGUGU-3′ [SL-0005]”, the “activation of SEAP expression” value in assay [1] was “No activation of SEAP expression”. The “TNF-α induction, described in words” value in assay [2] was “strongly induced TNF-α expression, to the level seen when R-0006 was used”. Further, the “activation of SEAP expression” value in assay [3] is listed as “No activation of SEAP expression”. Further, the “activation of SEAP expression” value in assay [4] is reported as “No activation of SEAP expression”. Further, in assay [5], the “TLR8 activation (fold increase of SEAP induction over the background), described in words” value was “stronger levels of TLR8 activation” and the “concentration at which TLR8 activation was detected starting” value is listed as 40 nM. For the same substance, in assay [6], the “11-12(p40) induction” value is given as “significant levels”, the IFNγ induction result is “significant levels”, the “IL-4 induction (Th2-type cytokine)” value is on record as “insignificant” and the “IL-5 induction (Th2-type cytokine)” value is recorded as “insignificant”. Moreover, in assay [6], the IL-6 induction result is given as “significant levels”, the IL-10 induction result is on record as “significant levels”, the IL-23 induction result is “significant levels” and the TNFα induction result was “significant levels”.
